Like-named read-outs stand apart in the source and are kept apart here.
Key:
[1] = Subcutaneous dose escalation and repeat-dose tolerability study of Compound A in cynomolgus monkeys (priming and maintenance doses); type: in vivo
Description: (§1) Male and female cynomolgus monkeys were assigned to groups and doses of Compound A were administered. Animals were dosed via subcutaneous injection at a volume of 2 mL/kg. The vehicle control article/diluent was phosphate-buffered saline (PBS).
(§2) IFNα, TNFα, and IL-6 levels were measured at 3, 6, and 12 hours post-dosing. Dose related but variable changes were observed. […] IL-6 increases at 3 mg/kg and 10 mg/kg persisted at 12 hours postdose. TNFα levels increased at 3 hours in the 1 mg/kg group. […] The cytokine responses are consistent with the predicted STING pathway activation. Morbidity was observed within 1 day of administration of the 10 mg/kg/dose; as such, 3 mg/kg was selected as the high dose for the following repeat-dose phase (Phase II).
(§3) In Phase II, 3 weekly administrations of 0.3 mg/kg of Compound A were tolerated. The 3 mg/kg dose in naïve animals was not tolerated and led to clinical observations of morbidity or death within 1 day of dosing. The findings were consistent with Compound A-mediated inflammatory response that was considered the probable cause of death.
(§4) A priming dose of 0.1 mg/kg/day was administered 4 days prior to the first dose of 1.0 mg/kg/day Compound A to potentially allow a tolerance to develop to avoid the acute mortality noted during Phase II following administration of 3.0 mg/kg/day of Compound A to naïve animals. […] Increased plasma levels of IL-6 were noted 3 hours and 6 hours postdose.
Edema is consistent with an inflammatory related pathology and the exaggerated pharmacology of the mode of action of Compound A. Administration of 3 weekly doses of 1.0 mg/kg/day (preceded by a priming dose of 0.1 mg/kg) or 0.6 mg/kg (without a priming dose) was tolerated. Animals tolerated an escalation to 3.0 mg/kg in Phase I, due to previous administrations at lower levels that allowed a tolerance to develop.

B16F10 melanoma cells [2] = assay: B16F10 melanoma tumor model in C57BL6 mice: Compound A with anti-CTLA4 and/or anti-PD-L1 antibody; type: in vivo
Description: FIG. 2, panels A and B show the effect of a triple combination of Compound A (I.T.), PD-L1 antibody (I.P.), and anti-CTLA4 antibody (I.P.). Groups of C57BL6 mice (n=5) bearing B16F10 tumors were treated as indicated on day 6, 10, and 14 after tumor implantation. […] Data are shown as mean±SEM.
In the same set of experiments, the combination of 0.3 μg of Compound A (I.T.) and 200 μg of anti-PD-L1 antibody (I.P.) was also tested with and without the combination of 200 μg of anti-CTLA4 antibody (I.P.).

STING pathway = assay: Plasma cytokine and chemokine levels after subcutaneous Compound A in cynomolgus monkeys; type: in vivo; conditions: for plasma levels of IL-6: 3 hours and 6 hours postdose; for plasma IFNα levels: male or female
Description: as §1, §2, §3, §4

[3] = Exposure (Cmax, AUC) of Compound A in cynomolgus monkeys; type: in vivo
Description: as §1, §3

B16F10 melanoma cells [4] = conditions: intratumorally
Description: Groups of C57BL6/J mice (n=5) were implanted subcutaneously with B16F10 melanoma cells into the right flank on day 0. On day 6, 9, 12, and 15, mice were treated intratumorally with anti-CTLA4 antibody or DMXAA, or the combination of both anti-CTLA4 antibody and DMXAA. […] Data are shown as mean±SEM.
Female C57BL6 mice at the age of 7-8 weeks were implanted on day 0 with 10^6 of B16F10 melanoma cells (ATCC CRL-6475) subcutaneously on their right flanks. On day 6, tumors were measured and mice were regrouped so that each group (n=5) had similar average tumor volumes (˜120 mm^3). On day 6, 9, 12, 15, mice were treated intratumorally with 50 μg of anti-CTLA4 antibody (BioXcell, BE0614), or 50 μg of DMXAA (Sigma-Aldrich, D5817), or the combination of both the anti-CTLA4 antibody and DMXAA. Mock treated group were injected with PBS intratumorally. Tumor volumes were measured every 2-3 days and mouse survival was monitored daily.

[5] = Phase I dose escalation, subcutaneous injection
[6] = Phase II, 3 mg/kg dose in naïve animals
[7] = alone, I.T., day 6, 10, 14: 0.3 μg Compound A or 50 μg anti-CTLA4 antibody
[8] = combination 0.3 μg Compound A (I.T.) with 10 μg anti-CTLA4 antibody (I.T.)
[9] = combination 0.3 μg Compound A (I.T.) with 50 μg anti-CTLA4 antibody (I.T.)
[10] = alone, day 6, 9, 12, 15: 50 μg anti-CTLA4 antibody or 50 μg DMXAA
[11] = combination 50 μg anti-CTLA4 antibody and 50 μg DMXAA

Nc1nc2c(ncn2[C@@H]2O[C@@H]3COP(=O)(O)OC4C(O)[C@H](n5cnc6c(N)ncnc65)O[C@@H]4COP(=O)(O)OC2C3OCC(F)(F)F)c(=O)[nH]1 (stereo partly drawn) [Compound A]
tolerability ([1]; 3 weekly doses of 0.6 mg/kg without a priming dose): tolerated
tolerability ([1]; 3 weekly doses of 1.0 mg/kg/day preceded by a priming dose of 0.1 mg/kg): tolerated
dose level tolerated on escalation [1, 5]: up to 3.0 mg/kg/dose
findings on escalation up to 3.0 mg/kg/dose [1, 5]: limited to increased body temperature and elevated IFNα, IL-6, and TNFα cytokine levels
time to morbidity after administration ([1]; Phase I, 10 mg/kg/dose): ≤ 1 days
time to morbidity or death after dosing [1, 6]: ≤ 1 days
tolerability [1, 6]: not tolerated
tolerability ([1]; Phase II, 3 weekly administrations of 0.3 mg/kg): tolerated
survival ([1]; Phase III, three weekly doses of 0.6 or 1.0 mg/kg/day (1.0 preceded by priming dose of 0.1 mg/kg/day)): survived until scheduled sacrifice
compound-related findings ([1]; animals administered 0.6 or 1.0 mg/kg/day): limited to a transient body temperature increase and mild to moderate clinical and anatomic pathology findings
dose not tolerated (acute morbidity and/or death, pulmonary edema) ([1]; naïve animals): ≥ 3.0 mg/kg
mouse survival (B16F10 melanoma cells [2]; [7]): extended mouse survival
tumor growth (B16F10 melanoma cells [2]; [7]): reduced tumor growth
mouse survival compared to both agents alone (B16F10 melanoma cells [2]; [8]): improved mouse survival
tumor growth compared to both agents alone (B16F10 melanoma cells [2]; [8]): further suppressed tumor growth
suppression of tumor growth compared to 0.3 μg Compound A (I.T.) with 200 μg anti-CTLA4 antibody (I.P.) (B16F10 melanoma cells [2]; [9]): more effective
tumor remission (B16F10 melanoma cells [2]; [9]): more dramatic tumor remission
reduction in tumor growth compared to 0.3 μg Compound A (I.T.) with 50 μg anti-CTLA4 antibody (I.T.) (B16F10 melanoma cells [2]; combination 0.3 μg Compound A (I.T.) with 200 μg anti-CTLA4 antibody (I.P.)): inferior
reduction in tumor growth compared to 0.3 μg Compound A (I.T.) with 50 μg anti-CTLA4 antibody (I.T.) (B16F10 melanoma cells [2]; combination 0.3 μg Compound A (I.T.) with 200 μg anti-PD-L1 antibody (I.P.)): inferior
anti-tumor effect compared to 200 μg anti-CTLA4 antibody administered systemically (B16F10 melanoma cells [2]; combination intratumoral Compound A with 10 μg anti-CTLA4 antibody (I.T.)): similar
tumor size and overall survival compared to 200 μg anti-CTLA4 antibody administered systemically (B16F10 melanoma cells [2]; combination intratumoral Compound A with 50 μg anti-CTLA4 antibody (I.T.)): significant benefits
effect on tumor growth compared to 0.3 μg Compound A (I.T.) with 50 μg anti-CTLA4 antibody (I.T.) (B16F10 melanoma cells [2]; triple combination 0.3 μg Compound A (I.T.), 200 μg anti-PD-L1 antibody (I.P.), 200 μg anti-CTLA4 antibody (I.P.)): comparable
IFNα levels (STING pathway; Phase I, 1 mg/kg and 3 mg/kg groups, 3 hours and 6 hours post dosing): Moderate levels
TNFα levels (STING pathway; Phase I, 1 mg/kg group, 3 hours): increased
TNFα levels (STING pathway; Phase I, 3 mg/kg and 10 mg/kg groups): Lower levels
IFNα levels (STING pathway; Phase I, 3 mg/kg and 10 mg/kg, 12 hours after dosing): decreased 12 hours after dosing, but did not return to pre-dose levels
IL-6 increases (STING pathway; Phase I, 3 mg/kg and 10 mg/kg, 12 hours postdose): persisted
IFNα levels (STING pathway; Phase I, 10 mg/kg group): Higher levels
plasma IL-6 levels (STING pathway; Phase I, all groups, 3 and 6 hours post dosing): Increases
IL-12, G-CSF, and IFNγ levels (STING pathway; Phase II): sporadic increases
changes in pro-inflammatory cytokines and chemokines MCP-1 and IP-10 (STING pathway; Phase II): suggestive of an inflammatory response with resolution by 24 hours postdose
plasma IL-1ra, IL-6, and IFNα cytokine levels (STING pathway; Phase II, 3 mg/kg dose level, 3 and 6 hours): dose-dependent increases
plasma levels of IL-6 (STING pathway; Phase III, 0.1 mg/kg/day): Increased
IP-10 (STING pathway; Phase III, 0.1 mg/kg/day, 3 hours post dosing, male and female): Slight elevation
levels of TNFα (STING pathway; Phase III, 0.1 mg/kg/day, 6 hours postdose in male, 3 and 6 hours postdose in female): Elevated levels
TNFα levels (STING pathway; Phase III, 0.1 mg/kg/day, 24 hours post dosing): returned to non-detectable level
IL-6 levels (STING pathway; Phase III, 0.1 mg/kg/day, 24 hours postdose): returned to a non-detectable level
plasma IFNα levels (STING pathway; Phase III, 0.1 mg/kg/day): did not cause significant increase
plasma levels of IL-6 (STING pathway; Phase III, 0.6 mg/kg/day): Increased
levels of TNFα (STING pathway; Phase III, 0.6 mg/kg/day, 6 hours postdose in male, 1.5, 3, and 6 hours postdose in female): Elevated levels
plasma IFNα levels (STING pathway; Phase III, 0.6 mg/kg/day): did not cause significant increase
IP-10 (STING pathway; Phase III, 0.6 mg/kg/day, throughout the time course): No significant elevation
IP-10 level (STING pathway; Phase III, 1 mg/kg/day, 1.5, 3, and 6 hours postdose): no increased IP-10 level
TNFα levels (STING pathway; Phase III, 1 mg/kg/day, 1.5, 3, and 6 hours postdose, male and female): Elevated
IFNα levels (STING pathway; Phase III, 1 mg/kg/day, 1.5 and 3 hours postdose): did not cause significant change
IL-6 levels (STING pathway; Phase III, 1 mg/kg/day, 3 and 6 hours postdose, male and female): Marked increase
IFNα levels (STING pathway; Phase III, 1 mg/kg/day, 6 hours postdose, male and female): elevated levels
increase of exposure (mean Cmax, AUC0-2, AUC0-8, AUC0-24) with dose ([3]; 0.3 to 3 mg/kg/day, Day 1 of Phase II): generally dose-proportional
sex differences in mean Cmax, AUC0-2, AUC0-8, and AUC0-24 values ([3]; male vs female): less than 2 fold
accumulation after multiple doses ([3]; multiple doses of 0.3 mg/kg/day): No accumulation

Cc1ccc2c(=O)c3cccc(CC(=O)O)c3oc2c1C [DMXAA]
mice survival (B16F10 melanoma cells [4]; [10]): prolonged survival
tumor growth (B16F10 melanoma cells [4]; [10]): greatly suppressed tumor growth
controlling tumor growth compared to monotherapy (B16F10 melanoma cells [4]; [11]): significant improved effect
extending survival compared to monotherapy (B16F10 melanoma cells [4]; [11]): significant improved effect

Source: US20210380695A1, “STING AGONIST COMBINATION TREATMENTS WITH IMMUNE CHECKPOINT INHIBITORS” (ImmuneSensor Therapeutics, Inc., priority 2020, published 2021)
